Bounds are passed on as bounds.

Sequence of PIKFYVE (Q9Y2I7 whole entry): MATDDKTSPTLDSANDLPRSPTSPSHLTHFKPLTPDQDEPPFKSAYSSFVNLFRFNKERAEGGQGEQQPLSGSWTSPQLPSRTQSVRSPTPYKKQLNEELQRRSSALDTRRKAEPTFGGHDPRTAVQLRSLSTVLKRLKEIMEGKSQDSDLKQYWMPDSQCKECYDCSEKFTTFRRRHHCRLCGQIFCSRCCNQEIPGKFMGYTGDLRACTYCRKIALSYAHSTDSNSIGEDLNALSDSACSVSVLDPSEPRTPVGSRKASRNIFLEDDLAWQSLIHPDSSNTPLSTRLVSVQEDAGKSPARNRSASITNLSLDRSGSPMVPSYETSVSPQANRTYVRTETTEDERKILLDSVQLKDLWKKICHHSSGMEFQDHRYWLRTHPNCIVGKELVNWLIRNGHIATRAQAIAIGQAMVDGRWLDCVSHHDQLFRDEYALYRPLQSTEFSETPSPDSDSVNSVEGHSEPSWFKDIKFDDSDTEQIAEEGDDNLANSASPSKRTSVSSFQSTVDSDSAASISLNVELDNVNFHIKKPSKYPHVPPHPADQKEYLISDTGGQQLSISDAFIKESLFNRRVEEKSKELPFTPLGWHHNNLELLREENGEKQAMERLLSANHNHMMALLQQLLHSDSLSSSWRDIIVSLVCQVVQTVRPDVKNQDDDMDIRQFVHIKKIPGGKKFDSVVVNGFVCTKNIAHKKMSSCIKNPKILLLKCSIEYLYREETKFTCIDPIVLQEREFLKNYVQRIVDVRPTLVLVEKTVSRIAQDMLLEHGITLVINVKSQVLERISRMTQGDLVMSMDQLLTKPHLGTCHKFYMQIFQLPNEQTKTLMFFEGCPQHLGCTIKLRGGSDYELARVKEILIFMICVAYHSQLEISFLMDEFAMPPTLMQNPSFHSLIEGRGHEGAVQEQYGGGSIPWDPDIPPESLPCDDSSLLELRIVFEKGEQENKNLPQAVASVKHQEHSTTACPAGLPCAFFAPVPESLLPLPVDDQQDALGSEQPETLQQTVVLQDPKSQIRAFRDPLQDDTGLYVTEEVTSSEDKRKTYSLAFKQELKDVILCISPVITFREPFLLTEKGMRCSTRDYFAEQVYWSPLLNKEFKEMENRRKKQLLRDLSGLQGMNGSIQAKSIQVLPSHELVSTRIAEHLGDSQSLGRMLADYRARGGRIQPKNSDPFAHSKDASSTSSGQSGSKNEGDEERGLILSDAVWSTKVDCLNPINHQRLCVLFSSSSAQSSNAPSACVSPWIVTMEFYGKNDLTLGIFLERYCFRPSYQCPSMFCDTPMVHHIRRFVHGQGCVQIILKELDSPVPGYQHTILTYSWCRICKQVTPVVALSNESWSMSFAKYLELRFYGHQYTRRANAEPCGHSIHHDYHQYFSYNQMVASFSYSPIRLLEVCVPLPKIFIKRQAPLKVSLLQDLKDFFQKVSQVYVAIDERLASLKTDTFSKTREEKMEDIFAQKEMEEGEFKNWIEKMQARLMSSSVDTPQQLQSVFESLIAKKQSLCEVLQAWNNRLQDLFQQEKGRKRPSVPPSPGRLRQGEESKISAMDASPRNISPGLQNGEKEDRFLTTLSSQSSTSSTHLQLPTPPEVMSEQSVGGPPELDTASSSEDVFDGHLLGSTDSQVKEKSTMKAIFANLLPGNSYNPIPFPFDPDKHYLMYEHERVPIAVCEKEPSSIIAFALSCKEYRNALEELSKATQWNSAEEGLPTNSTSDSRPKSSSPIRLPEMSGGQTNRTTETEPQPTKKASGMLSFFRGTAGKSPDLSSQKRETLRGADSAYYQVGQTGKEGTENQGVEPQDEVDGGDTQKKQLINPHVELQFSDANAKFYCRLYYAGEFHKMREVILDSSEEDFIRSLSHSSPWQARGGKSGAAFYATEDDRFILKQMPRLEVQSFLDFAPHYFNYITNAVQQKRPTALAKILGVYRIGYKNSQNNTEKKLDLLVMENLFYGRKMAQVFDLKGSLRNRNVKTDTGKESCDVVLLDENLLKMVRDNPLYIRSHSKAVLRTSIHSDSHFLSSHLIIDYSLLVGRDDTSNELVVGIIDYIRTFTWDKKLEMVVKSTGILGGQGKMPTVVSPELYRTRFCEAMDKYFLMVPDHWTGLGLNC

This assay has as its target PIKFYVE (Homo sapiens, UniProt Q9Y2I7). Nature of the assay: PIKFYVE assay (luciferase ADP-Glo kinase assay, Promega). The settings on record: Table 2. The format is biochemical. The procedure:
The activity of Compounds 1-20 was measured using a PIKFYVE assay (luciferase ADP-Glo kinase assay available from Promega Corp. of Madison, WI).
The activity of Compounds 39-90 was also measured using a PIKFYVE assay (luciferase ADP-Glo kinase assay available from Promega Corp. of Madison, WI).
`c1ccc(-c2cn(-c3cc(N4CCOCC4)nc(OCCc4ccccn4)n3)cn2)cc1` [Compound 39] returned an IC50 of less than 10000 nM. In turn, `Clc1ccc(-c2ccn(-c3cc(N4CCOCC4)nc(OCCc4ccccn4)n3)n2)cc1` [Compound 40] showed a concentration for half-maximal inhibition (IC50) of less than 500 nM. Take `Fc1ccc(-c2cnn(-c3cc(N4CC[C@H]5OCC[C@H]54)nc(CCCc4ccccn4)n3)c2)cc1` [Compound 41]: the IC50 is less than 10000 nM.

For the molecule `Cc1cccc(-c2ccn(-c3cc(N4CCOCC4)nc(Cc4ccccc4)n3)n2)c1` [Compound 42], the IC50 is less than 500 nM. `c1cc(-c2cc(N3CCOCC3)nc(OCC3CCCO3)n2)n[nH]1` (stereo not shown) [Compound 45] came in with an IC50 of less than 500 nM. `Cc1cccc(-c2ccn(-c3nc(NCCc4ccccn4)cc(N4CCOCC4)n3)n2)c1` [Compound 46] showed a half-inhibitory concentration (IC50) of less than 50 nM.

The molecule `Cc1cccc(-c2ccn(-c3nc(NCCc4cnccn4)cc(N4CCOCC4)n3)n2)c1` [Compound 47] yielded an IC50 of less than 50 nM. The result for `Cc1cccc(-c2ccn(-c3cc(N4CC[C@H]5OCC[C@H]54)nc(C(O)CO)n3)n2)c1` (stereo partly shown) [Compound 48] reads less than 500 nM; that for `COCC(O)c1nc(N2CCOCC2)cc(-n2ccc(-c3cccc(C)c3)n2)n1` (stereo not shown) [Compound 49], less than 50 nM; that for `CC(C)(C)c1ccn(-c2cc(N3CCOCC3)nc(OCC(O)CO)n2)n1` (stereo not shown) [Compound 51], less than 10000 nM. The molecule `OCC(O)COc1nc(N2CCOCC2)cc(-n2cc3ccccc3n2)n1` (stereo not shown) [Compound 52] came in with an IC50 of less than 500 nM. In turn, `OCC(O)COc1nc(N2CCOCC2)cc(-n2ncc3ccccc32)n1` (stereo not shown) [Compound 53] displayed an IC50 of less than 500 nM. Take `Cc1cccc(-c2ccn(-c3cc(N4CCOCC4)nc(OC[C@@H](O)c4ccccc4)n3)n2)c1` [Compound 57]: the IC50 was less than 5 nM. Then `Cc1cccc(-c2ccn(-c3cc(N4CCOCC4)nc(OC[C@H](O)c4ccccc4)n3)n2)c1` [Compound 58], with less than 5 nM. The molecule `COc1nc(N2CCOCC2)cc(-n2ccc(-c3cccc(C)c3)n2)n1` [Compound 59] showed an IC50 of less than 50 nM.

`Cc1cccc(-c2ccn(-c3cc(N4CCOCC4)ncn3)n2)c1` [Compound 60] showed an IC50 of less than 500 nM. On to `Cc1cccc(-c2ccn(-c3cc(N4CCOCC4)nc(N4CCCC4=O)n3)n2)c1` [Compound 61], for which the IC50 was less than 50 nM. In turn, `Cc1cn(-c2cc(N3CCOCC3)nc(OCCc3cnn(C)c3)n2)nc1-c1ccccc1` [Compound 63] had an IC50 of less than 500 nM. Consider `COCc1nc(N2CCOCC2)cc(-n2ccc(-c3ccccc3)n2)n1` [Compound 69], for which the IC50 is less than 50 nM.

On to `CCOC(=O)c1ccn(-c2cc(N3CCOCC3)nc(OCCc3ccn(C)n3)n2)n1` [Compound 70], for which the IC50 was less than 50 nM. As for `CN(C)Cc1cc(-c2ccccc2)nn1-c1cc(N2CCOCC2)nc(OCCc2cnn(C)c2)n1` [Compound 75], the IC50 was less than 50 nM. As to `COCc1cc(-c2ccccc2)n(-c2cc(N3CCOCC3)nc(OCCc3cnn(C)c3)n2)n1` [Compound 77], the IC50 is less than 50 nM. Take `COC(c1ccccc1)c1nc(N2CCOCC2)cc(-n2ccc(-c3ccccc3)n2)n1` (stereo not shown) [Compound 78]: the IC50 is less than 50 nM. In turn, `Cc1cccc(-c2ccn(-c3cc(N4CCOCC4)nc(C(F)(F)F)n3)n2)c1` [Compound 82] gave an IC50 of less than 50 nM.

`COc1nc(N2CCOCC2)c(C)c(-n2ccc(-c3cccc(C)c3)n2)n1` [Compound 83] showed an IC50 of less than 500 nM. The result for `OCc1nc(N2CCOCC2)cc(-n2ccc(-c3ccccc3)n2)n1` [Compound 84] reads less than 50 nM; that for `CNc1nc(N2CCOCC2)cc(-n2nc(-c3ccccc3)cc2C)n1` [Compound 85], less than 500 nM. Turning to `COc1cc(N2CCOCC2)nc(-n2ccc(-c3cccc(C)c3)n2)n1` [Compound 87], the IC50 is less than 500 nM.

Broadly, the IC50 is the concentration at which inhibition is half-maximal. Low values mean greater potency, high ones weaker potency.

For the origin of these results see patent US20260130921A1, “TREATMENT OF VIRAL INFECTIONS WITH COMBINATION OF PIKFYVE KINASE INHIBITORS AND TMPRSS-2 INHIBITORS” (AcuraStem Incorporated, priority 2020, published 2026).
